In ChEMBL document CHEMBL1140749, “Novel copper(II) complex of N-propyl-norfloxacin and 1,10-phenanthroline with enhanced antileukemic and DNA nuclease activities” (2008):
≈ marks a conversion by molar mass, not a printed value.

Columns and labels:
Type in all cases: functional
Escherichia coli = assay: Antibacterial activity against Escherichia coli
Pseudomonas aeruginosa = assay: Antibacterial activity against Pseudomonas aeruginosa
Staphylococcus aureus = assay: Antibacterial activity against Staphylococcus aureus

| Compound | MIC (Escherichia coli) | MIC (Pseudomonas aeruginosa) | MIC (Staphylococcus aureus) |
| --- | --- | --- | --- |
| CCN1CCN(c2cc3c(cc2F)c(=O)c(C(=O)O)cn3C2CC2)CC1 [ENROFLOXACIN] | 1 µg/mL (≈ 2.78 µM) | 1 µg/mL (≈ 2.78 µM) | 8 µg/mL (≈ 22.3 µM) |
| CCn1cc(C(=O)O)c(=O)c2cc3c(cc21)OCO3 [OXOLINIC ACID] | 1 µg/mL (≈ 3.83 µM) | 16 µg/mL (≈ 61.2 µM) | 16 µg/mL (≈ 61.2 µM) |
| c1cnc2c(c1)ccc1cccnc12 [PHENANTHROLINE] | 32 µg/mL (≈ 178 µM) | 32 µg/mL (≈ 178 µM) | 32 µg/mL (≈ 178 µM) |

Further compounds by falling MIC (Escherichia coli), results first:

| MIC (Escherichia coli) | MIC (Pseudomonas aeruginosa) | MIC (Staphylococcus aureus) | Compound |
| --- | --- | --- | --- |
| 256 µg/mL (≈ 1640 µM) | 256 µg/mL (≈ 1640 µM) | 256 µg/mL (≈ 1640 µM) | c1ccc(-c2ccccn2)nc1 [DIPYRIDYL] |
| 4 µg/mL (≈ 11.1 µM) | 4 µg/mL (≈ 11.1 µM) | 16 µg/mL (≈ 44.3 µM) | CCCN1CCN(c2cc3c(cc2F)c(=O)c(C(=O)O)cn3CC)CC1 |
